The experiment concerns the target T1, lysine 5,6-aminomutase (5,6-LAM) (Acetoanaerobium sticklandii, UniProt E3PRJ4+E3PRJ5).
T1 construct: gene kamD
As to conditions: dAdoCbl, NH4-EPPS pH 8.5, reaction 4 min, PLP analogue replacing PLP.

T1 sequence (E3PRJ5 whole entry): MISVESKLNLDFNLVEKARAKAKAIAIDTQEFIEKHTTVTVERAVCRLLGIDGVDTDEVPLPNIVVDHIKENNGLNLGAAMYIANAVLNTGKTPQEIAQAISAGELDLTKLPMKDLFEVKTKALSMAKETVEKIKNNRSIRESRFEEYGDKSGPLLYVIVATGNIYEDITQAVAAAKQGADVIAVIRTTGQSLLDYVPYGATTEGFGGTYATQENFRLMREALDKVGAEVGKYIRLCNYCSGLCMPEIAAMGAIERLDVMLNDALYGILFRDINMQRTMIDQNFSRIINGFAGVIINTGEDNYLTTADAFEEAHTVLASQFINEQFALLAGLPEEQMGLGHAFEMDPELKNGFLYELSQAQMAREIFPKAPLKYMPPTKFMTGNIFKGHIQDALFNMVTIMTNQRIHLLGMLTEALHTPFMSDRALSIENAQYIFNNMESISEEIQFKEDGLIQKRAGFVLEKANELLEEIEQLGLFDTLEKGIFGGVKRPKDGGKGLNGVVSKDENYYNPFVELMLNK
T1 sequence (E3PRJ4 whole entry): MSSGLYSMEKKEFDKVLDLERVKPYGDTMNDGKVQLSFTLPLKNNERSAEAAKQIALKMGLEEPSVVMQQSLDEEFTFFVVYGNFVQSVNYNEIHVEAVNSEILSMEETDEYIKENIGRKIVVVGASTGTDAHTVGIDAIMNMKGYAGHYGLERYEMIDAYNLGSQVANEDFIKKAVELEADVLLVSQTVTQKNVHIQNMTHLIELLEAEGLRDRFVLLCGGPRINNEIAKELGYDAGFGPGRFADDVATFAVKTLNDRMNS

Take `Cc1ccc(COP(=O)(O)O)c(C=O)c1O` [dAPLP]: the “EPR of substrate-related radical with 4-thia-L-lysine” value is on record as “this spectrum obtained with dAPLP can be attributed to the corresponding S^•”.

(Values after publication PMC9105233, “The Nitrogen Atom of Vitamin B6 Is Essential for the Catalysis of Radical Aminomutases” (International Journal of Molecular Sciences, 2022).)
